Data published in US7662831B2, “Tetracyclic indoles as potassium channel modulators” (Wyeth LLC, priority 2006, dated 2010).

System: isolated rat bladder strips
Assay: Inhibition of contractions of isolated rat bladder strips (KCl-enhanced contractile activity)
Settings: 15 mM KCl added; for IC50: 0.5 h, isolated Sprague-Dawley rat bladder strips, 30 min challenge per concentration, read-out: IC50 (concentration required to elicit 50% inhibition of pre-drug contractile activity); for % Enhancement of Contractility @ 3 μM / inhibition at 3 µM: isolated rat bladder strips; for inhibition at 3 µM: read-out: % Inhibition of Contractility @ 3 μM
Method: The compounds of the examples were tested to determine their ability to inhibit contractions of isolated rat bladder strips. See Foster, C. D. et al. Br. J. Pharmacol. 97:281-291, 1989; and Fujii, K. et al. Br. J. Pharmacol. 99:779-785, 1990. Malmgren, A. et al. J. Urol. 143:828-834, 1990, each of which are incorporated herein by reference in its entirety.
Male Sprague-Dawley rats (150-200 g) were obtained from ACE animal suppliers. Animals were allowed free access to food and water.
Animals were euthanized by CO2 asphyxiation followed by a bilateral thoracotomy. The bladder was removed into warm (37 deg. C.) physiological salt solution (PSS) of the following composition (mM): NaCl, 118.4; KCl, 4.7; CaCl2, 2.5; MgSO4.7H2O, 1.2; NaHCO3, 24.9; KH2PO4, 1.2; glucose, 11.1; EDTA, 0.023; gassed with 95% O2/5% CO2; pH 7.4. The bladder was opened and then cut into strips 1-2 mm in width and 7-10 mm in length. The strips were subsequently suspended in a 10 ml tissue bath under an initial resting tension of 1.5 g. The strips were held in place by two surgical clips one of which was attached to a fixed hook while the other was attached to an isometric force transducer. […] The carbachol was then washed out and the tissue allowed to relax to its resting level of activity. Following a further thirty minute period of recovery an additional 15 mM KCl was introduced into the tissue bath. This increase in KCl concentration results in a large increase in the amplitude of spontaneous contractions (and initiation of contractions in previously quiescent strips) superimposed upon a small increase in basal tone. Following stabilization of this enhanced level of contractile activity, incremental increases in the concentration of test compound or vehicle were introduced into the tissue bath. Contractile activity was measured for each compound or vehicle concentration during the last minute of a thirty minute challenge.
Isometric force developed by the bladder strips was measured using a force transducer and recorded on a polygraph. Contractile activity was assessed by measuring either the average amplitude of the contractions (baseline to peak force) occurring during a one min period or, preferably, by integrating the contractile activity with respect to time (one minute measuring period).
The percentage inhibition of contractile activity evoked by each concentration of a given test compounds was used to generate a concentration-response curve. The concentration of test compound required to elicit 50% inhibition of pre-drug contractile activity (IC50 concentration) was calculated from this concentration-response curve. The maximum percentage inhibition of contractile activity evoked by a test compound was also recorded for concentrations of test compound <- or 30 uM.

Row | IC50 [nM] | SMILES | further results
1 | 500 to 600 | O=C(Cc1ccccc1)Nc1cc2c3c(c1)c1c(n3CC2)CCCCC1 [Example 13, N-4,5,8,9,10,11-hexahydro-7H-cyclohepta[b]pyrrolo[3,2,1-hi]indol-2-yl-2-phenylacetamide] | 
2 | 2000 to 3000 | CC(=O)Nc1cc2c3c(c1)c1c(n3CCC2)CCCC1 [Example 19, N-5,6,8,9,10,11-hexahydro-4H-pyrido[3,2,1-jk]carbazol-2-ylacetamide] | 
3 | 800 to 1000 | CC(C)CC(=O)Nc1cc2c3c(c1)c1c(n3CC2)CCCCC1 [Example 14, N-4,5,8,9,10,11-hexahydro-7H-cyclohepta[b]pyrrolo[3,2,1-hi]indol-2-yl-3-methylbutanamide] | 
4 | 80 to 550 | CCCCCC(=O)Nc1cc2c3c(c1)c1c(n3CC2)CCCCCC1 [Example 20, N-4,5,7,8,9,10,11,12-octahydrocycloocta[b]pyrrolo[3,2,1-hi]indol-2-ylhexanamide] | 
5 | 300 to 1200 | O=C(CCC1CCCC1)Nc1cc2c3c(c1)c1c(n3CC2)CCCCC1 [Example 15, 3-cyclopentyl-N-4,5,8,9,10,11-hexahydro-7H-cyclohepta[b]pyrrolo[3,2,1-hi]indol-2-ylpropanamide] | 
6 | 400 to 800 | CCCCCC(=O)Nc1cc2c3c(c1)c1c(n3CCC2)CCCC1 [Example 17, N-5,6,8,9,10,11-hexahydro-4H-pyrido[3,2,1-jk]carbazol-2-ylhexanamide] | 
7 | 800 to 1000 | CCCCCCC(=O)Nc1cc2c3c(c1)c1c(n3CC2)CCCCCC1 [Example 22, N-4,5,7,8,9,10,11,12-octahydrocycloocta[b]pyrrolo[3,2,1-hi]indol-2-ylheptanamide] | 
8 | 500 to 550 | CC(C)CC(=O)Nc1cc2c3c(c1)c1c(n3CCC2)CCCC1 [Example 18, N-5,6,8,9,10,11-hexahydro-4H-pyrido[3,2,1-jk]carbazol-2-yl-3-methylbutanamide] | 
9 | 160 to 700 | CC(C)(C)CC(=O)Nc1cc2c3c(c1)c1c(n3CC2)CCCCCC1 [Example 21, 3,3-dimethyl-N-4,5,7,8,9,10,11,12-octahydrocycloocta[b]pyrrolo[3,2,1-hi]indol-2-ylbutanamide] | 
10 | 700 to 1000 | CCCCC(=O)Nc1cc2c3c(c1)c1c(n3CC2)CCCCC1 [Example 12, N-4,5,8,9,10,11-hexahydro-7H-cyclohepta[b]pyrrolo[3,2,1-hi]indol-2-ylpentanamide] | 

The next lines start with the compound.

Row | SMILES | IC50 [nM] | further results
11 | CC(C)(C)CC(=O)Nc1cc2c3c(c1)c1c(n3CCC2)CCCC1 [Example 16, N-5,6,8,9,10,11-hexahydro-4H-pyrido[3,2,1-jk]carbazol-2-yl-3,3-dimethylbutanamide] |  | % Enhancement of Contractility @ 3 μM: 80-100%
12 | CC(C)CC(=O)Nc1cc2c3c(c1)c1c(n3CCC2)CCCCC1 [Example 6, N-5,6,9,10,11,12-hexahydro-4H,8H-cyclohepta[4,5]pyrrolo[3,2,1-ij]quinolin-2-yl-3-methylbutanamide] | 80 to 350 | 
13 | CC(C)(C)CC(=O)Nc1cc2c3c(c1)c1c(n3CCC2)CCCCC1 [Example 1, N-5,6,9,10,11,12-hexahydro-4H,8H-cyclohepta[4,5]pyrrolo[3,2,1-ij]quinolin-2-yl-3,3-dimethylbutanamide] | 30 to 70 | 
14 | CCCCC(=O)Nc1cc2c3c(c1)c1c(n3CCC2)CCCCC1 [Example 9, N-5,6,9,10,11,12-hexahydro-4H,8H-cyclohepta[4,5]pyrrolo[3,2,1-ij]quinolin-2-ylpentanamide] | 50 to 1000 | 
15 | CC(C)(C)CC(=O)Nc1cc2c3c(c1)c1c(n3CC2)CCCCC1 [Example 10, N-4,5,8,9,10,11-hexahydro-7H-cyclohepta[b]pyrrolo[3,2,1-hi]indol-2-yl-3,3-dimethylbutanamide] | 150 to 350 | 
16 | CC(=O)Nc1cc2c3c(c1)c1c(n3CC2)CCCCC1 [Example 11, N-4,5,8,9,10,11-hexahydro-7H-cyclohepta[b]pyrrolo[3,2,1-hi]indol-2-ylacetamide] | 650 to 700 | 
17 | O=C(Nc1cc2c3c(c1)c1c(n3CCC2)CCCCC1)C1CCCCC1 [Example 8, N-5,6,9,10,11,12-hexahydro-4H,8H-cyclohepta[4,5]pyrrolo[3,2,1-ij]quinolin-2-ylcyclohexanecarboxamide] |  | % Enhancement of Contractility @ 3 μM: 150-200%
18 | CC(C)(C)C(=O)Nc1cc2c3c(c1)c1c(n3CCC2)CCCCC1 [Example 2, N-5,6,9,10,11,12-hexahydro-4H,8H-cyclohepta[4,5]pyrrolo[3,2,1-ij]quinolin-2-yl-2,2-dimethylpropanamide] |  | % Enhancement of Contractility @ 3 μM: 20-100%
19 | CC(C)(C)CC(=O)Nc1cc2c3c(c1)c1c(n3CCC2)C(=O)CCCC1 [Example 23, 3,3-dimethyl-N-(8-oxo-5,6,9,10,11,12-hexahydro-4H,8H-cyclohepta[4,5]pyrrolo[3,2,1-ij]quinolin-2-yl)butanamide] |  | inhibition at 3 µM: 25 to 50%
20 | O=C(Nc1cc2c3c(c1)c1c(n3CCC2)CCCCC1)c1cccs1 [Example 5, N-5,6,9,10,11,12-hexahydro-4H,8H-cyclohepta[4,5]pyrrolo[3,2,1-ij]quinolin-2-ylthiophene-2-carboxamide] |  | % Enhancement of Contractility @ 3 μM: 60-90%
21 | CCC(=O)Nc1cc2c3c(c1)c1c(n3CCC2)CCCCC1 [Example 7, N-5,6,9,10,11,12-hexahydro-4H,8H-cyclohepta[4,5]pyrrolo[3,2,1-ij]quinolin-2-ylpropanamide] | 400 to 550 | 
22 | CCCCCC(=O)Nc1cc2c3c(c1)c1c(n3CCC2)CCCCC1 [Example 3, N-5,6,9,10,11,12-hexahydro-4H,8H-cyclohepta[4,5]pyrrolo[3,2,1-ij]quinolin-2-ylhexanamide] | 400 to 2600 | 
23 | O=C(CCc1ccccc1)Nc1cc2c3c(c1)c1c(n3CCC2)CCCCC1 [Example 4, N-5,6,9,10,11,12-hexahydro-4H,8H-cyclohepta[4,5]pyrrolo[3,2,1-ij]quinolin-2-yl-3-phenylpropanamide] |  | inhibition at 3 µM: 5 to 20%
